Source: ChEMBL document CHEMBL4346757, “Synthesis and biological evaluation of 7-methoxy-1-(3,4,5-trimethoxyphenyl)-4,5-dihydro-2H-benzo[e]indazoles as new colchicine site inhibitors” (Bioorg Med Chem Lett, 2019)

Tests used:
Assay type in all cases: functional
NCI-H322M = test: Growth inhibition of human NCI-H322M cells assessed as cell growth at 0.1 uM after 48 hrs by SRB assay relative to control; conditions: read-out: Activity
T47D [1] = test: Growth inhibition of human T47D cells assessed as cell growth at 0.01 uM after 48 hrs by SRB assay relative to control; conditions: read-out: Activity
NCI-H460 [2] = test: Cytotoxicity against human NCI-H460 cells assessed as growth inhibition after 48 hrs by SRB assay; conditions: NCI-H460, 48 h
SN12C = test: Growth inhibition of human SN12C cells assessed as cell growth at 0.01 uM after 48 hrs by SRB assay relative to control; conditions: read-out: Activity
A498 = test: Growth inhibition of human A498 cells assessed as cell growth at 1 uM after 48 hrs by SRB assay relative to control; conditions: A498, 48 h, read-out: Activity
MDA-MB-468 = test: Growth inhibition of human MDA-MB-468 cells assessed as cell growth at 0.1 uM after 48 hrs by SRB assay relative to control; conditions: MDA-MB-468, 48 h, read-out: Activity
MDA-MB-231 = test: Growth inhibition of human MDA-MB-231/ATCC cells assessed as cell growth at 100 uM after 48 hrs by SRB assay relative to control; conditions: MDA-MB-231, 48 h, read-out: Activity
NCI-H23 = test: Growth inhibition of human NCI-H23 cells assessed as cell growth at 1 uM after 48 hrs by SRB assay relative to control; conditions: NCI-H23, 48 h, read-out: Activity
CAKI-1 [3] = test: Growth inhibition of human Caki1 cells assessed as cell growth at 0.01 uM after 48 hrs by SRB assay relative to control; conditions: CAKI-1, 48 h, read-out: Activity
HCT-15 = test: Growth inhibition of human HCT15 cells assessed as cell growth at 0.01 uM after 48 hrs by SRB assay relative to control; conditions: HCT-15, 48 h, read-out: Activity
SF-539 = test: Growth inhibition of human SF539 cells assessed as cell growth at 0.1 uM after 48 hrs by SRB assay relative to control; conditions: SF-539, 48 h, read-out: Activity
HCC 2998 [4] = test: Growth inhibition of human HCC2998 cells assessed as cell growth at 1 uM after 48 hrs by SRB assay relative to control; conditions: HCC 2998, 48 h, read-out: Activity
NCI-H460 [5] = test: Growth inhibition of human NCI-H460 cells assessed as cell growth at 1 uM after 48 hrs by SRB assay relative to control; conditions: NCI-H460, 48 h, read-out: Activity
RXF 393 = test: Cytotoxicity against human RXF393 cells assessed as growth inhibition after 48 hrs by SRB assay; conditions: RXF 393, 48 h
MOLT-4 [6] = test: Growth inhibition of human MOLT4 cells assessed as cell growth at 0.01 uM after 48 hrs by SRB assay relative to control; conditions: MOLT-4, 48 h, read-out: Activity
UACC-257 = test: Cytotoxicity against human UACC257 cells assessed as growth inhibition after 48 hrs by SRB assay; conditions: UACC-257, 48 h
K562 = test: Growth inhibition of human K562 cells assessed as cell growth at 0.01 uM after 48 hrs by SRB assay relative to control; conditions: K562, 48 h, read-out: Activity
HCT-116 = test: Growth inhibition of human HCT116 cells assessed as cell growth at 0.1 uM after 48 hrs by SRB assay relative to control; conditions: HCT-116, 48 h, read-out: Activity
ACHN [7] = test: Growth inhibition of human ACHN cells assessed as cell growth at 10 uM after 48 hrs by SRB assay relative to control; conditions: read-out: Activity
ACHN [8] = test: Growth inhibition of human ACHN cells assessed as cell growth at 100 uM after 48 hrs by SRB assay relative to control; conditions: read-out: Activity
CAKI-1 [9] = test: Growth inhibition of human Caki1 cells assessed as cell growth at 100 uM after 48 hrs by SRB assay relative to control; conditions: CAKI-1, 48 h, read-out: Activity
T47D [10] = test: Growth inhibition of human T47D cells assessed as cell growth at 100 uM after 48 hrs by SRB assay relative to control; conditions: read-out: Activity
SW-620 = test: Growth inhibition of human SW620 cells assessed as cell growth at 0.1 uM after 48 hrs by SRB assay relative to control; conditions: SW-620, 48 h, read-out: Activity
786-0 = test: Growth inhibition of human 786-0 cells assessed as cell growth at 1 uM after 48 hrs by SRB assay relative to control; conditions: 786-0, 48 h, read-out: Activity
MOLT-4 [11] = test: Growth inhibition of human MOLT4 cells assessed as cell growth at 0.1 uM after 48 hrs by SRB assay relative to control; conditions: MOLT-4, 48 h, read-out: Activity
RPMI-8226 = test: Growth inhibition of human RPMI8226 cells assessed as cell growth at 0.01 uM after 48 hrs by SRB assay relative to control; conditions: RPMI-8226, 48 h, read-out: Activity
MOLT-4 [12] = test: Cytotoxicity against human MOLT4 cells assessed as growth inhibition after 48 hrs by SRB assay; conditions: MOLT-4, 48 h
LOX IMVI = test: Growth inhibition of human LOXIMVI cells assessed as cell growth at 1 uM after 48 hrs by SRB assay relative to control; conditions: read-out: Activity
SK-MEL-2 = test: Growth inhibition of human SK-MEL-2 cells assessed as cell growth at 100 uM after 48 hrs by SRB assay relative to control; conditions: SK-MEL-2, 48 h, read-out: Activity
MCF7 = test: Growth inhibition of human MCF7 cells assessed as cell growth at 0.01 uM after 48 hrs by SRB assay relative to control; conditions: MCF7, 48 h, read-out: Activity
OVCAR-5 = test: Growth inhibition of human OVCAR5 cells assessed as cell growth at 10 uM after 48 hrs by SRB assay relative to control; conditions: OVCAR-5, 48 h, read-out: Activity
HCC 2998 [13] = test: Growth inhibition of human HCC2998 cells assessed as cell growth at 10 uM after 48 hrs by SRB assay relative to control; conditions: HCC 2998, 48 h, read-out: Activity
[14] = read-out: LC50 (the source's name)
[15] = read-out: pLC50 (the source's name) (converted)

`COc1ccc2c(c1)CCc1n[nH]c(-c3cc(OC)c(OC)c(OC)c3)c1-2` was tested, and the growth at 0.1 µM (NCI-H322M) was 40%, the growth at 0.01 µM (T47D [1]) was 59% and the GI50 (NCI-H460 [2]; read-out: GI50) was < 0.01 µM. For the same compound, the CC50 (NCI-H460 [2]; [14]) was 68.5 µM, the TGI (NCI-H460 [2]; read-out: TGI) was 2.06 µM and the GI50 (NCI-H460 [2]; read-out: pGI50 (converted)) was < 0.01 µM. For the same compound, the CC50 (NCI-H460 [2]; [15]) was 69.2 µM, the TGI (NCI-H460 [2]; read-out: pTGI (converted)) was 2.04 µM and the growth at 0.01 µM (SN12C) was 39%. It also gave a growth at 1 µM (A498) of -16%, a growth at 0.1 µM (MDA-MB-468) of -2% and a growth at 100 µM (MDA-MB-231) of -18%. The growth at 1 µM (NCI-H23) was 7%, the growth at 0.01 µM (CAKI-1 [3]) was 30% and the growth at 0.01 µM (HCT-15) was 6%. The growth at 0.1 µM (SF-539) was -6%, the growth at 1 µM (HCC 2998 [4]) was 14% and the growth at 1 µM (NCI-H460 [5]) was 2%. For the same compound, the GI50 (RXF 393; read-out: GI50) was < 0.01 µM, the CC50 (RXF 393; [14]) was 51.3 µM and the GI50 (RXF 393; read-out: pGI50 (converted)) was < 0.01 µM. For the same compound, the CC50 (RXF 393; [15]) was 51.3 µM, the growth at 0.01 µM (MOLT-4 [6]) was 41% and the CC50 (UACC-257; [14]) was > 100 µM. The TGI (UACC-257; read-out: TGI) was 34.2 µM, the CC50 (UACC-257; [15]) was > 100 µM and the TGI (UACC-257; read-out: pTGI (converted)) was 33.9 µM. It also gave a growth at 0.01 µM (K562) of 19%, a growth at 0.1 µM (HCT-116) of 3% and a growth at 10 µM (ACHN [7]) of 15%. The growth at 100 µM (ACHN [8]) was -29%, the growth at 100 µM (CAKI-1 [9]) was -20% and the growth at 100 µM (T47D [10]) was -72%. The growth at 0.1 µM (SW-620) was 18%, the growth at 1 µM (786-0) was 14% and the growth at 0.1 µM (MOLT-4 [11]) was 35%. For the same compound, the growth at 0.01 µM (RPMI-8226) was 45%, the GI50 (MOLT-4 [12]; read-out: GI50) was < 0.01 µM and the CC50 (MOLT-4 [12]; [14]) was > 100 µM. The TGI (MOLT-4 [12]; read-out: TGI) was > 100 µM, the GI50 (MOLT-4 [12]; read-out: pGI50 (converted)) was < 0.01 µM and the CC50 (MOLT-4 [12]; [15]) was > 100 µM. For the same compound, the TGI (MOLT-4 [12]; read-out: pTGI) was > 100 µM, the growth at 1 µM (LOX IMVI) was 18% and the growth at 100 µM (SK-MEL-2) was -51%. It also gave a growth at 0.01 µM (MCF7) of 17%, a growth at 10 µM (OVCAR-5) of 31% and a growth at 10 µM (HCC 2998 [13]) of 5%.
